Assay results as given in BindingDB's records for doi:10.1021/jm8005433 (A* Star, 2008).

Biological target: Bcl-2-like protein 1 (Homo sapiens, UniProt Q07817)
Test: Fluorescence Polarization Assay
Conditions: pH 8; 22 °C
Method: In the fluorescence polarization assay, the Bcl-XL protein is incubated with a fluorescein-tagged Bak-BH3 peptide. The Bcl-XL:Bak-BH3 peptide complex is then titrated with the test compounds, and the displacement of the Bak-BH3 peptide is measured as a function of decreasing polarized fluorescence. The fluorescence polarization values were determined using a Tecan GeniosPro plate reader using the excitation/emission wavelengths 485/535 nm. The binding affinities are reported as the inhibitory concentration of the titrant required to displace 50% of the Bak-BH3 peptide (IC50).

Bcl-2-like protein 1, sequence (Q07817 whole entry): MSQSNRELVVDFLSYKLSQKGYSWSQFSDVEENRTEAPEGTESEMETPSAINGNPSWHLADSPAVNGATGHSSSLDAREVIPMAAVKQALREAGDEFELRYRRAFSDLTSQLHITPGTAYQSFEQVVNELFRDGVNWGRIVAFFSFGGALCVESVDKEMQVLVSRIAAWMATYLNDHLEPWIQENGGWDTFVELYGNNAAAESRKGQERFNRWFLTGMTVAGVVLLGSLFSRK

| Compound | IC50 [µM] |
| --- | --- |
| COc1ccc2c(c[n+](C)c3c4cc5c(cc4ccc23)OCO5)c1OC | 100 |
| C[n+]1cc2c3c(ccc2c2ccc4cc5c(cc4c21)OCO5)OCO3 | 19 |
| COc1ccc2c(c[n+](C)c3ccc(CO)cc23)c1OC [2-(hydroxymethyl)-7,8-dimethoxy-5-methylphenanthridin-5-ium chloride] | > 100 |
| C[n+]1cc2c3c(ccc2c2cc(CCO)ccc21)OCO3 [4-(2-hydroxyethyl)-8-methyl-12,14-dioxa-8-azatetracyclo[8.7.0.0^{2,7}.0^{11,15}]heptadeca-1(10),2(7),3,5,8,11(15),16-heptaen-8-ium chloride] | 3 |
| COCCc1ccc2c(c1)c1ccc3c(c1c[n+]2C)OCO3 [4-(2-methoxyethyl)-8-methyl-12,14-dioxa-8-azatetracyclo[8.7.0.0^{2,7}.0^{11,15}]heptadeca-1(10),2(7),3,5,8,11(15),16-heptaen-8-ium chloride] | 6 |
| C[n+]1cc2c3c(ccc2c2cc(CO)ccc21)OCO3 [4-(hydroxymethyl)-8-methyl-12,14-dioxa-8-azatetracyclo[8.7.0.0^{2,7}.0^{11,15}]heptadeca-1(10),2(7),3,5,8,11(15),16-heptaen-8-ium chloride] | 11 |
| COCc1ccc2c(c1)c1ccc3c(c1c[n+]2C)OCO3 [4-(methoxymethyl)-8-methyl-12,14-dioxa-8-azatetracyclo[8.7.0.0^{2,7}.0^{11,15}]heptadeca-1(10),2(7),3,5,8,11(15),16-heptaen-8-ium chloride] | 11 |
| Cn1cc2c(=O)c(O)ccc-2c2cc(CCO)ccc21 [7,8-dihydroxy-2-(2-hydroxyethyl)-5-methylphenanthridin-5-ium chloride] | 22 |
| Cn1cc2c(=O)c(O)ccc-2c2cc(CO)ccc21 [7,8-dihydroxy-2-(hydroxymethyl)-5-methylphenanthridin-5-ium chloride] | 20 |
| Cn1cc2c(=O)c(O)ccc-2c2ccccc21 [7,8-dihydroxy-5-methylphenanthridin-5-ium chloride] | 18 |
| COc1ccc2c(c[n+](C)c3ccccc23)c1OC [7,8-dimethoxy-5-methylphenanthridin-5-ium iodide] | > 100 |
| COc1ccc2c(c[n+]([O-])c3ccccc23)c1OC [7,8-dimethoxy-5-oxidophenanthridin-5-ium] | > 100 |
| C[n+]1cc2c3c(ccc2c2ccccc21)OC(C)(C)O3 [8,13,13-trimethyl-12,14-dioxa-8-azatetracyclo[8.7.0.0^{2,7}.0^{11,15}]heptadeca-1(10),2(7),3,5,8,11(15),16-heptaen-8-ium iodide] | > 100 |
| C[n+]1cc2c3c(ccc2c2ccccc21)OCO3 [8-methyl-12,14-dioxa-8-azatetracyclo[8.7.0.0^{2,7}.0^{11,15}]heptadeca-1(10),2(7),3,5,8,11(15),16-heptaen-8-ium iodide] | 12 |
| [O-][n+]1cc2c3c(ccc2c2ccccc21)OCO3 [8-oxido-12,14-dioxa-8-azatetracyclo[8.7.0.0^{2,7}.0^{11,15}]heptadeca-1(10),2(7),3,5,8,11(15),16-heptaen-8-ium] | > 100 |
| CC1(C)Oc2ccc3c(c[n+]([O-])c4ccccc34)c2O1 [13,13-dimethyl-8-oxido-12,14-dioxa-8-azatetracyclo[8.7.0.0^{2,7}.0^{11,15}]heptadeca-1(10),2(7),3,5,8,11(15),16-heptaen-8-ium] | > 100 |
